Data reported in patent US5561133A, “Thymidylate synthase inhibiting quinazolinones” (British Technology Group Limited, priority 1992, dated 1996).

Columns and labels:
[1] = system: human breast,ovarian and liver cancer; conditions: clinical, humans; cited from earlier work
[2] = particularly liver and kidneys; cited from earlier work
L1210 cell line = assay: inhibition of growth of the leukaemia cell line L1210 in cell culture; type: cell-based; conditions: Mus musculus, read-out: IC50 against the L1210 cell line
Source text: (b) An assay which determines the ability of a test compound to inhibit the growth of the leukaemia cell line L1210 in cell culture. The test may be similar to that described in UK Patent Specification No. 2065653B; and […]

MCF-7 cell line = assay: inhibition of growth of the human breast cancer cell line MCF-7 in cell culture; type: cell-based; conditions: MCF7, MCF-7 cell culture, read-out: IC50 against the MCF-7 cell line
Source text: (c) An assay which determines the ability of a test compound to inhibit the growth of the human breast cancer cell line MCF-7 in cell culture. The test may be similar to that described by Lippman et al (Cancer Res., 1976, 36, 4595).

IC50 (L1210 cell line) | IC50 (MCF-7 cell line) | SMILES | activity against human breast, ovarian and liver cancer [1] | toxicity in humans [2]
– | – | C#CCN(Cc1ccc2nc(N)[nH]c(=O)c2c1)c1ccc(C(=O)N[C@@H](CCC(=O)O)C(=O)O)cc1 [CB3717] | promising activity | symptoms of toxicity in humans, particularly in relation to the liver and kidneys
240 nM | 300 nM | C#CCN(Cc1ccc2nc(C)[nH]c(=O)c2c1)c1ccc(C(=O)N[C@@H](CCC(=O)N(C)[C@@H](CCC(=O)O)C(=O)O)C(=O)O)cc1 [Example 1, N-p-[N-(3,4-Dihydro-2-methyl-4-oxoquinazolin-6-ylmethyl)-N-(prop-2-ynyl)amino]benzoyl-L-γ-glutamyl-N-methyl-L-glutamic acid] | – | –
